We go through 18 molecules from PubChem BioAssay AID248 (DTP/NCI, 2004).

Inconclusive results and toxic doses are left out.

This assay deals with L1210 leukemia ip in BDF1 mice, survival T/C. Kind of assay: NCI In Vivo Anticancer Drug Screen. Data for tumor model L1210 Leukemia (intraperitoneal) in B6D2F1 (BDF1) mice. The following applies: endpoint: mean survival time, higher = longer survival. The gist of the method:
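Mice bearing the transplanted tumor received compound or vehicle. Survival of the treated group was divided by that of the vehicle-treated control group to give the ratio.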

Setting [1] is: dose: 100.0 mg/kg/injection, schedule: Q01DX009 (ip), vehicle: Klucel (hydroxypropylcellulose) (HPC).
The mark [2] stands for this setting: dose: 100.0 mg/kg/injection, schedule: Q04DX003 (ip), vehicle: Klucel (hydroxypropylcellulose) (HPC).
The mark [3] stands for this setting: dose: 200.0 mg/kg/injection, schedule: Q04DX003 (ip), vehicle: Klucel (hydroxypropylcellulose) (HPC).
Where [4] appears, read: dose: 50.0 mg/kg/injection, schedule: Q01DX009 (ip), vehicle: saline with Tween-80.
Where [5] appears, read: dose: 100.0 mg/kg/injection, schedule: Q01DX009 (ip), vehicle: saline with Tween-80.
Where [6] appears, read: dose: 100.0 mg/kg/injection, schedule: Q04DX003 (ip), vehicle: saline with Tween-80.
Setting [7] is: dose: 200.0 mg/kg/injection, schedule: Q01DX009 (ip), vehicle: saline with Tween-80.
[8] abbreviates: dose: 200.0 mg/kg/injection, schedule: Q04DX003 (ip), vehicle: saline with Tween-80.
Setting [9] is: dose: 100.0 mg/kg/injection, schedule: Q04DX003 (ip), vehicle: saline.
Setting [10] is: dose: 200.0 mg/kg/injection, schedule: Q04DX003 (ip), vehicle: saline.
[11] abbreviates: dose: 100.0 mg/kg/injection, schedule: Q04DX002 (ip), vehicle: Klucel (hydroxypropylcellulose) (HPC).
The mark [12] stands for this setting: dose: 200.0 mg/kg/injection, schedule: Q04DX002 (ip), vehicle: Klucel (hydroxypropylcellulose) (HPC).
[13] abbreviates: dose: 400.0 mg/kg/injection, schedule: Q04DX002 (ip), vehicle: Klucel (hydroxypropylcellulose) (HPC).

With `CN=C(N)c1ccc(NC(=O)c2ccc(C(=O)Nc3ccc(C(N)=NC)cc3)c(N)c2)cc1`, the T/C is 104 % of control (dose: 0.37 mg/kg/injection, schedule: Q01DX Z (ip), vehicle: water); 121 % of control (dose: 0.75 mg/kg/injection, schedule: Q01DX Z (ip), vehicle: water); 123 % of control (dose: 1.5 mg/kg/injection, schedule: Q01DX Z (ip), vehicle: water); 154 % of control (dose: 1.75 mg/kg/injection, schedule: Q01DX Z (ip), vehicle: water); 189 % of control (dose: 2.0 mg/kg/injection, schedule: Q01DX Z (ip), vehicle: carboxymethylcellulose (CMC)); 218 % of control (dose: 4.0 mg/kg/injection, schedule: Q01DX Z (ip), vehicle: carboxymethylcellulose (CMC)). Besides, the T/C is 184 % of control (dose: 6.0 mg/kg/injection, schedule: Q01DX Z (ip), vehicle: carboxymethylcellulose (CMC)); 110 % of control (dose: 6.7 mg/kg/injection, schedule: Q01DX001 (sc), vehicle: water); 170 % of control (dose: 8.0 mg/kg/injection, schedule: Q01DX Z (ip), vehicle: carboxymethylcellulose (CMC)); 107 % of control (dose: 10.0 mg/kg/injection, schedule: Q01DX001 (sc), vehicle: water); 107 % of control (dose: 10.0 mg/kg/injection, schedule: Q01DX Z (ip), vehicle: carboxymethylcellulose (CMC)); 96 % of control (dose: 12.0 mg/kg/injection, schedule: Q01DX Z (ip), vehicle: carboxymethylcellulose (CMC)). The T/C was 88 % of control (dose: 14.0 mg/kg/injection, schedule: Q01DX Z (ip), vehicle: carboxymethylcellulose (CMC)); 119 % of control (dose: 15.0 mg/kg/injection, schedule: Q01DX001 (sc), vehicle: water); 110 % of control (dose: 25.0 mg/kg/injection, schedule: Q01DX Z (oral), vehicle: water); 100 % of control (dose: 50.0 mg/kg/injection, schedule: Q01DX Z (oral), vehicle: water); 97 % of control (dose: 100.0 mg/kg/injection, schedule: Q01DX Z (oral), vehicle: water); 110 % of control (dose: 200.0 mg/kg/injection, schedule: Q01DX Z (oral), vehicle: water).
As to `O=C(NC(=S)Nc1ccc(F)cc1)c1ccco1`, the T/C (dose: 50.0 mg/kg/injection, schedule: Q01DX009 (ip), vehicle: Klucel (hydroxypropylcellulose) (HPC)) is 94 % of control; the T/C under setting [1] was 92 % of control; the T/C under setting [2] was 103 % of control; the T/C under setting [3] was 97 % of control.
Take `O=C1C=C(S(=O)(=O)c2ccccc2)C(=O)c2ccccc21`: the T/C runs as follows: (dose: 75.0 mg/kg/injection, schedule: Q01DX001 (ip), vehicle: other) 93 % of control; (dose: 150.0 mg/kg/injection, schedule: Q01DX001 (ip), vehicle: other) 98 % of control.
Regarding `O=C1CCCCCCC12CCCCC2`, the T/C was 88 % of control under setting [1]; 102 % of control under setting [2]; 98 % of control (dose: 200.0 mg/kg/injection, schedule: Q01DX009 (ip), vehicle: Klucel (hydroxypropylcellulose) (HPC)); 95 % of control under setting [3]; 98 % of control (dose: 400.0 mg/kg/injection, schedule: Q01DX009 (ip), vehicle: Klucel (hydroxypropylcellulose) (HPC)); 91 % of control (dose: 400.0 mg/kg/injection, schedule: Q04DX003 (ip), vehicle: Klucel (hydroxypropylcellulose) (HPC)).
On to `Nc1nccnc1N`, for which the T/C (dose: 50.0 mg/kg/injection, schedule: Q01DX009 (ip), vehicle: saline) was 103 % of control; the T/C (dose: 100.0 mg/kg/injection, schedule: Q01DX001 (ip), vehicle: saline) was 102 % of control; the T/C (dose: 100.0 mg/kg/injection, schedule: Q01DX009 (ip), vehicle: saline) was 105 % of control; the T/C (dose: 200.0 mg/kg/injection, schedule: Q01DX001 (ip), vehicle: saline) is 96 % of control.
In the case of `c1cc2c3c(c1)/C(=N\N=C1/CCN4CCCc5cccc1c54)CCN3CCC2`, the T/C is, setting by setting: under setting [4], 91 % of control; under setting [5], 89 % of control; under setting [6], 92 % of control; under setting [7], 92 % of control; under setting [8], 89 % of control.
Turning to `C=CNC(=O)C(c1ccccc1)N1CCCCC1` (centres undefined), the T/C by setting is: (dose: 100.0 mg/kg/injection, schedule: Q01DX001 (ip), vehicle: Klucel (hydroxypropylcellulose) (HPC)) 102 % of control; (dose: 200.0 mg/kg/injection, schedule: Q01DX001 (ip), vehicle: Klucel (hydroxypropylcellulose) (HPC)) 97 % of control; (dose: 400.0 mg/kg/injection, schedule: Q01DX001 (ip), vehicle: Klucel (hydroxypropylcellulose) (HPC)) 103 % of control.
`Nc1ccc(-c2ccc(N)c(Cl)c2)cc1Cl`: the T/C is 100 % of control under setting [9]; 103 % of control under setting [10]; 91 % of control (dose: 400.0 mg/kg/injection, schedule: Q04DX003 (ip), vehicle: saline).
Regarding `CCOC(=O)C(C(=O)OCC)C1CCCC(=O)C1` (centres undefined), the T/C under setting [4] is 92 % of control, the T/C under setting [5] was 96 % of control and the T/C under setting [7] is 92 % of control.
On to `O=C(C[n+]1ccc(-c2ccccc2)cc1)c1ccccc1`, for which the T/C is 109 % of control under setting [9] and 105 % of control under setting [10].
As for `O=S(=O)(O)CCl`, the T/C is, setting by setting: (dose: 100.0 mg/kg/injection, schedule: Q04DX002 (ip), vehicle: saline) 106 % of control; (dose: 200.0 mg/kg/injection, schedule: Q04DX002 (ip), vehicle: saline) 120 % of control; (dose: 400.0 mg/kg/injection, schedule: Q04DX002 (ip), vehicle: saline) 102 % of control.
Regarding `CCC(=Nc1ccccc1)Nc1ccccc1`, the T/C runs as follows: under setting [11], 106 % of control; under setting [12], 106 % of control; under setting [13], 109 % of control.
Consider `O=C(Oc1ccccc1[N+](=O)[O-])c1ccc(Cl)c(Cl)c1`, for which the T/C is 90 % of control under setting [11], 97 % of control under setting [12] and 100 % of control under setting [13].
For the molecule `CC(=O)Nc1ccc(/C=C/C(=O)c2ccc(Cl)cc2)cc1`, the T/C is, setting by setting: under setting [5], 102 % of control; under setting [6], 100 % of control; under setting [7], 89 % of control; under setting [8], 87 % of control; (dose: 400.0 mg/kg/injection, schedule: Q01DX009 (ip), vehicle: saline with Tween-80) 91 % of control; (dose: 400.0 mg/kg/injection, schedule: Q04DX003 (ip), vehicle: saline with Tween-80) 90 % of control.
For the molecule `CCCCN(C)/N=N/c1nn[nH]n1`, the T/C is, setting by setting: under setting [11], 92 % of control; under setting [13], 113 % of control.
Consider `O=C(COc1ccc(Cl)cc1)OCCBr`, for which the T/C is, setting by setting: under setting [11], 121 % of control; under setting [12], 105 % of control; under setting [13], 102 % of control.
Consider `C1CCC(CCNCCC2CCCCC2)CC1`, for which the T/C reads like this: (dose: 5.0 mg/kg/injection, schedule: Q01DX001 (ip), vehicle: saline) 102 % of control; (dose: 10.0 mg/kg/injection, schedule: Q01DX001 (ip), vehicle: saline) 102 % of control; (dose: 20.0 mg/kg/injection, schedule: Q01DX001 (ip), vehicle: saline) 104 % of control.
Take `CCCCCCCCCCCCOC(=O)OC1CCC2(C)C(=CCC3C2CCC2(C)C(C(C)CCCC(C)C)CCC32)C1` (centres undefined): the T/C (dose: 100.0 mg/kg/injection, schedule: Q01DX008 (sc), vehicle: olive oil, sesame oil, peanut oil) was 111 % of control; the T/C (dose: 100.0 mg/kg/injection, schedule: Q04DX003 (sc), vehicle: olive oil, sesame oil, peanut oil) was 109 % of control; the T/C (dose: 200.0 mg/kg/injection, schedule: Q01DX008 (sc), vehicle: olive oil, sesame oil, peanut oil) was 107 % of control; the T/C (dose: 200.0 mg/kg/injection, schedule: Q04DX003 (sc), vehicle: olive oil, sesame oil, peanut oil) is 100 % of control; the T/C (dose: 400.0 mg/kg/injection, schedule: Q01DX008 (sc), vehicle: olive oil, sesame oil, peanut oil) was 107 % of control; the T/C (dose: 400.0 mg/kg/injection, schedule: Q04DX003 (sc), vehicle: olive oil, sesame oil, peanut oil) was 109 % of control.
